Marks after values point to notes of the source that are not given here.
Tests used:
[1] = system: human gastric carcinoma cell line NCI-N87; experiment: MTT cell growth inhibition, NCI-N87; type: cell-based; settings: NCI-N87, MTT assay, 72 h; read-out: IC50, growth of tumor cell line
From the text: (§3) Experimental method: Cell lines (human non-small-cell lung cancer cell line A549, human colon cancer cell line LOVO, human nasopharyngeal carcinoma cell line CNE-2, human liver cancer cell line HepG2, human cervical carcinoma cell line Hela, human breast cancer cell lines MCF-7 and MDA-MB-231, human gastric carcinoma cell line NCI-N87, human prostatic cancer cell lines PC-3 and DU145, human leukemia cell line K562, human melanoma cell line A375, human neuroblastoma cell line SH-SY5H, human promyelocytic leukemia cell line HL-60, 5-FU-resistant human hepatocellular carcinoma cell line BEL-7402/5-Fu, doxorubicin-resistant hepatocellular carcinoma cell line HepG2/ADM, doxorubicin-resistant human breast cancer cell lines MCF-7/ADR) at logarithmic phase were resuspended in RPMI 1640 medium (containing 10% fetal bovine serum, 100 U/mL penicillin-streptomycin). Then, 100 μL of cells (cell concentration was 5×10^5/mL) were seeded into 96 wells plate. After 24 h incubation at 37° C. with 5% CO2, tested compounds were added (the control group without compound) for an additional 72 h incubation. After that, 30 μL of MTT [3-(4,5-Dimethylthiazol-2-yl)-2,5-diphenyltetrazolium bromide] solution (5 mg/mL) was added into each well and incubated for another 4 h at 37° C. and then the formazan crystals were solubilized with 100 μL DMSO. Finally, absorbance of each well was determined at 570 nm by a microplate reader (Thermo).
(§4) The concentration required to inhibit cell growth by 50% (IC50) was calculated from survival curves.

[2] = system: human umbilical vein endothelial cells HUVEC; experiment: MTT cytotoxicity on normal cells, HUVEC; settings: read-out: IC50, cytotoxicity on normal cell line; HUVEC, MTT assay
Experimental: (§5) Then, 100 μL of cells (cell concentration was 5×10^5/mL) were seeded into 96 wells plate. After 24 h incubation at 37° C. with 5% CO2, tested compounds were added (the control group without compound) for an additional 72 h incubation. After that, 30 μL of MTT [3-(4,5-Dimethylthiazol-2-yl)-2,5-diphenyltetrazolium bromide] solution (5 mg/mL) was added into each well and incubated for another 4 h at 37° C. and then the formazan crystals were solubilized with 100 μL DMSO. Finally, absorbance of each well was determined at 570 nm by a microplate reader (Thermo).
(§6) The standard curve was drew with compound concentrations as the abscissa and cell growth inhibition rates as the ordinate. The concentration required to inhibit cell growth by 50% (IC50) was calculated from survival curves.
(§7) Experimental method: In vitro cytotoxicities of vinca alkaloids, hydrazinolyzed vinca alkaloids and vinca alkaloid dipeptide derivatives on human normal liver cells LO2 and human umbilical vein endothelial cells HUVEC were detected according to the method of Example 2.

[3] = system: doxorubicin-resistant human breast cancer cell lines MCF-7/ADR; experiment: MTT cell growth inhibition, MCF-7/ADR; type: cell-based; settings: MTT assay, 72 h, read-out: IC50, growth of tumor cell line
[4] = system: 5-FU-resistant human hepatocellular carcinoma cell line BEL-7402/5-Fu; experiment: MTT cell growth inhibition, BEL-7402/5-Fu; type: cell-based; settings: MTT assay, 72 h, read-out: IC50, growth of tumor cell line
From the text: as §3, §4

[5] = system: human breast cancer cell line MCF-7; experiment: MTT cell growth inhibition, MCF-7; type: cell-based; settings: MCF-7, MTT assay, 72 h; read-out: IC50, growth of tumor cell line
From the text: as §3, §4

[6] = system: human prostatic cancer cell line DU145; experiment: MTT cell growth inhibition, DU-145; type: cell-based; settings: DU-145, MTT assay, 72 h; read-out: IC50, growth of tumor cell line
From the text: as §3, §4

[7] = system: human normal liver cells LO2; experiment: MTT cytotoxicity on normal cells, LO2; settings: read-out: IC50, cytotoxicity on normal cell line; LO2, MTT assay
Experimental: as §5, §6, §7

[8] = system: human non-small-cell lung cancer cell line A549; experiment: MTT cell growth inhibition, A549; type: cell-based; settings: A549, MTT assay, 72 h; read-out: IC50, growth of tumor cell line
From the text: as §3, §4

[9] = system: human melanoma cell line A375; experiment: MTT cell growth inhibition, A375; type: cell-based; settings: A375, MTT assay, 72 h; read-out: IC50, growth of tumor cell line
From the text: as §3, §4

[10] = system: human colon cancer cell line LOVO; experiment: MTT cell growth inhibition, LOVO; type: cell-based; settings: LOVO (FAPα positive), MTT assay, 72 h; read-out: IC50, growth of tumor cell line
From the text: as §3, §4

[11] = system: MDA-MB-231 xenografts; experiment: MDA-MB-231 xenografts in nude mice; type: in vivo, BALB/nu/nu mice; settings: MDA-MB-231 xenograft nude mice; for Anti-tumor rate (%) / Body weight (g) Post-dose / Tumor weight: 1 mg/kg i.p. every two days, 8 administrations; for Body weight (g) Pre-dose: before dosing
Experimental: (§1) Experimental method: The MDA-MB-231 cells at logarithmic phase were digested and washed twice with PBS. Then, 100 μL cells (1×10^7) were inoculated subcutaneously on the backs of female BALB/nu/nu mice. After tumors grew to 70˜100 mm^3, the mice were divided randomly into saline group (control group), vinca alkaloids groups (VLB, CCRB, CCFN, CCXJ) and vinca alkaloid derivatives groups (JJ-CCJ, BX-CCJ, JJ-CCRB, BX-CCRB, JJ-CCFN, BX-CCFN, JJ-CCXJ and BX-CCXJ), with six mice per group. 1 mg/kg drugs were injected intraperitoneally every two days, meanwhile body weight and tumor sizes were measured. Experiment was ended after 8 times of drug administration, then tumor and organs were stripped. Tumor volumes were measured using the following formula: V=½(ab^2), whereas a refers to the longest diameter and b is the shortest diameter.

[12] = system: human prostatic cancer cell line PC-3; experiment: MTT cell growth inhibition, PC-3; type: cell-based; settings: PC-3, MTT assay, 72 h; read-out: IC50, growth of tumor cell line
[13] = system: human breast cancer cell line MDA-MB-231; experiment: MTT cell growth inhibition, MDA-MB-231; type: cell-based; settings: MDA-MB-231, MTT assay, 72 h; read-out: IC50, growth of tumor cell line
[14] = system: HL-60 xenografts; experiment: HL-60 xenografts in nude mice; type: in vivo; settings: HL-60 xenograft nude mice; for Anti-tumor rate (%) / Body weight (g) Post-dose / Tumor weight: 1 mg/kg; for Body weight (g) Pre-dose: before dosing
Experimental: as §1
(§2) Tumor xenograft models of HepG2, LOVO, K562 and HL-60 cell lines were performed as the method described above.

[15] = system: LOVO xenografts; experiment: LOVO xenografts in nude mice; type: in vivo; settings: LOVO xenograft nude mice; for Anti-tumor rate (%) / Body weight (g) Post-dose / Tumor weight: 1 mg/kg; for Body weight (g) Pre-dose: before dosing
Experimental: as §1, §2

[16] = system: human cervical carcinoma cell line Hela; experiment: MTT cell growth inhibition, Hela; type: cell-based; settings: MTT assay, 72 h, read-out: IC50, growth of tumor cell line
From the text: as §3, §4

[17] = system: human nasopharyngeal carcinoma cell line CNE-2; experiment: MTT cell growth inhibition, CNE-2; type: cell-based; settings: CNE-2, MTT assay, 72 h; read-out: IC50, growth of tumor cell line
From the text: as §3, §4

[18] = system: Kunming mice; experiment: Acute toxicity test; type: in vivo; settings: injected intraperitoneally
Experimental: Experimental method: Kunming mice were purchased from Guangdong Medical Experimental Animal Center, weighing 18-22 g, then randomly divided into several groups with 10 mice in each group. Different concentrations of VLB and vinca alkaloid dipeptide derivatives were injected intraperitoneally. Finally, the median lethal dose (LD50) was calculated according to the surviving animals.
LD50 was measured using the following formula:
LD50 (mg/kg)=The median lethal dose/body weight

[19] = system: human neuroblastoma cell line SH-SY5H; experiment: MTT cell growth inhibition, SH-SY5H; type: cell-based; settings: MTT assay, 72 h, read-out: IC50, growth of tumor cell line
From the text: as §3, §4

[20] = system: HepG2 xenografts; experiment: HepG2 xenografts in nude mice; type: in vivo; settings: HepG2 xenograft nude mice; for Anti-tumor rate (%) / Body weight (g) Post-dose / Tumor weight: 1 mg/kg; for Body weight (g) Pre-dose: before dosing
Experimental: as §1, §2

[21] = system: human liver cancer cell line HepG2; experiment: MTT cell growth inhibition, HepG2; type: cell-based; settings: HepG2, MTT assay, 72 h; read-out: IC50, growth of tumor cell line
From the text: as §3, §4

[22] = system: K562 xenografts; experiment: K562 xenografts in nude mice; type: in vivo; settings: K562 xenograft nude mice; for Anti-tumor rate (%) / Body weight (g) Post-dose / Tumor weight: 1 mg/kg; for Body weight (g) Pre-dose: before dosing
Experimental: as §1, §2

[23] = system: human promyelocytic leukemia cell line HL-60; experiment: MTT cell growth inhibition, HL-60; type: cell-based; settings: HL-60, MTT assay, 72 h; read-out: IC50, growth of tumor cell line
From the text: as §3, §4

[24] = system: doxorubicin-resistant hepatocellular carcinoma cell line HepG2/ADM; experiment: MTT cell growth inhibition, HepG2/ADM; type: cell-based, human; settings: MTT assay, 72 h, read-out: IC50, growth of tumor cell line
From the text: as §3, §4

[25] = system: human leukemia cell line K562; experiment: MTT cell growth inhibition, K562; type: cell-based; settings: K562, MTT assay, 72 h; read-out: IC50, growth of tumor cell line
From the text: as §3, §4

Row | Structure (SMILES) | IC50 [1] [nM] | IC50 [2] [nM] | IC50 [4] [nM] | IC50 [5] [nM] | IC50 [6] [nM] | IC50 [7] [nM] | IC50 [8] [nM] | IC50 [9] [nM] | IC50 [10] [nM] | Anti-tumor rate (%) [11] | Body weight (g) Post-dose [11] [g] | Tumor weight [11] [g] | Body weight (g) Pre-dose [11] [g] | IC50 [12] [nM] | IC50 [13] [nM] | Anti-tumor rate (%) [14] | Body weight (g) Post-dose [14] [g] | Tumor weight [14] [g] | Body weight (g) Pre-dose [14] [g] | Anti-tumor rate (%) [15] | other results
1 | CCC1(O)CC2CN(CCc3c([nH]c4ccccc34)C(C(=O)OC)(c3cc4c(cc3OC)N(C=O)C3C(O)(C(=O)NNC(=O)C5CCCN5C(=O)CNC(=O)OCc5ccccc5)C(O)C5(CC)C=CCN6CCC43C65)C2)C1 (stereo not shown) [BX-CCXJ, Z-GP-NHNH-Vincristine] | 43.2 ± 3.53 | 176 ± 5.51 | 326 ± 13.3 | 73.2 ± 3.66 | 76.9 ± 4.55 | 101 ± 9.02 | 47.7 ± 2.64 | 54.8 ± 8.41 | 24.9 ± 1.78 | 91.18** % | 21.9 ± 2.9 | 0.23 ± 0.09 | 19.5 ± 1.4 | 88.9 ± 6.84 | 57.3 ± 3.36 | 72.12** % | 19.7 ± 0.9 | 0.58 ± 0.17 | 19.3 ± 1.1 | 79.45** % | IC50 [3]: 169 ± 5.67 nM; Body weight (g) Post-dose [15]: 24.2 ± 1.7 g; Tumor weight [15]: 0.59 ± 0.33 g; Body weight (g) Pre-dose [15]: 23.8 ± 1.0 g; IC50 [16]: 55.3 ± 1.9 nM; IC50 [17]: 40.1 ± 2.09 nM; LD50 (median lethal dose) [18]: 10 mg/kg; IC50 [19]: 61.7 ± 6.14 nM; Anti-tumor rate (%) [20]: 88.63** %; Body weight (g) Post-dose [20]: 21.9 ± 2.1 g; Tumor weight [20]: 0.29 ± 0.13 g; Body weight (g) Pre-dose [20]: 22.2 ± 1.2 g; IC50 [21]: 33.4 ± 2.01 nM; Anti-tumor rate (%) [22]: 75.00** %; Body weight (g) Post-dose [22]: 22.5 ± 1.1 g; Tumor weight [22]: 0.42 ± 0.14 g; Body weight (g) Pre-dose [22]: 21.2 ± 0.9 g; IC50 [23]: 72.8 ± 4.59 nM; IC50 [24]: 135 ± 5.54 nM; IC50 [25]: 44.9 ± 3.28 nM
2 | CCC1=CC2CN(C1)Cc1c([nH]c3ccccc13)C(C(=O)OC)(c1cc3c(cc1OC)N(C)C1C(O)(C(=O)NNC(=O)C4CCCN4C(=O)CNC(=O)OCc4ccccc4)C(O)C4(CC)C=CCN5CCC31C54)C2 (stereo not shown) [BX-CCRB, Z-GP-NHNH-Vinorelbine] | 244 ± 9.33 | 167 ± 8.87 | 325 ± 11.7 | 238 ± 8.37 | 219 ± 6.29 | 183 ± 5.51 | 115 ± 5.23 | 120 ± 14.5 | 123 ± 11.4 | 85.83** % | 20.1 ± 0.9 | 0.37 ± 0.07 | 19.1 ± 1.7 | 269.8 ± 2.03 | 181 ± 8.1 | 74.52** % | 19.2 ± 1.3 | 0.53 ± 0.28 | 19.0 ± 1.2 | 80.14** % | Body weight (g) Post-dose [15]: 24.1 ± 2.3 g; Tumor weight [15]: 0.57 ± 0.23 g; Body weight (g) Pre-dose [15]: 23.6 ± 1.2 g; IC50 [16]: 182 ± 2.36 nM; IC50 [17]: 210 ± 5.78 nM; LD50 (median lethal dose) [18]: 12 mg/kg; IC50 [19]: 166 ± 15.6 nM; Anti-tumor rate (%) [20]: 85.49** %; Body weight (g) Post-dose [20]: 22.6 ± 0.5 g; Tumor weight [20]: 0.37 ± 0.09 g; Body weight (g) Pre-dose [20]: 22.2 ± 1.5 g; IC50 [21]: 167 ± 4.37 nM; Anti-tumor rate (%) [22]: 72.62** %; Body weight (g) Post-dose [22]: 23.4 ± 1.2 g; Tumor weight [22]: 0.46 ± 0.29 g; Body weight (g) Pre-dose [22]: 22.1 ± 0.5 g; IC50 [23]: 208 ± 18.4 nM; IC50 [24]: 437 ± 14.4 nM; IC50 [25]: 109 ± 4.66 nM
3 | CCC1(O)CC2CN(CCc3c([nH]c4ccccc34)C(C(=O)OC)(c3cc4c(cc3OC)N(C)C3C(O)(C(=O)NNC(=O)C5CCCN5C(=O)CNC(=O)OCc5ccccc5)C(O)C5(CC)C=CCN6CCC43C65)C2)C1 (stereo not shown) [BX-CCJ, Z-GP-NHNH-Vinblastine] | 103 ± 8.87 | 129 ± 1.34 | 179 ± 8.87 | 108 ± 4.23 | 57.3 ± 2.07 | 96.3 ± 1.11 | 62.1 ± 3.87 | 49.5 ± 4.53 | 44.8 ± 8.15 | 92.34** % | 21.2 ± 2.1 | 0.20 ± 0.12 | 19.8 ± 1.0 | 71.1 ± 1.97 | 64.2 ± 4.57 | 81.29** % | 20.1 ± 1.0 | 0.41 ± 0.19 | 18.8 ± 1.1 | 85.02** % | Body weight (g) Post-dose [15]: 24.4 ± 1.6 g; Tumor weight [15]: 0.43 ± 0.38 g; Body weight (g) Pre-dose [15]: 23.8 ± 1.9 g; IC50 [16]: 56.8 ± 3.08 nM; IC50 [17]: 52.7 ± 3.01 nM; LD50 (median lethal dose) [18]: 10 mg/kg; IC50 [19]: 59.8 ± 6.42 nM; Anti-tumor rate (%) [20]: 86.67** %; Body weight (g) Post-dose [20]: 22.1 ± 1.3 g; Tumor weight [20]: 0.34 ± 0.21 g; Body weight (g) Pre-dose [20]: 22.0 ± 1.7 g; IC50 [21]: 46.8 ± 1.17 nM; Anti-tumor rate (%) [22]: 76.79** %; Body weight (g) Post-dose [22]: 23.1 ± 1.4 g; Tumor weight [22]: 0.39 ± 0.27 g; Body weight (g) Pre-dose [22]: 22.3 ± 1.0 g; IC50 [23]: 85.5 ± 9.57 nM; IC50 [24]: 146 ± 5.47 nM; IC50 [25]: 11.7 ± 3.04 nM

Reference: patent US10377774B2 (JINAN UNIVERSITY, priority 2013, dated 2019)
